Laboratory results taken from ChEMBL document CHEMBL4507264, “Data for DCP probe BAY-7598” (2021).

Experiments:
[1] = biological target: Tyrosine-protein kinase ABL1 (Homo sapiens) (UniProt P00519); details: Compound concentration 1000.0 nM
[2] = biological target: Ankyrin repeat and protein kinase domain-containing protein 1 (Homo sapiens) (UniProt Q8NFD2); details: Compound concentration 1000.0 nM
[3] = biological target: Calcium/calmodulin-dependent protein kinase type 1 (Homo sapiens) (UniProt Q14012); details: Compound concentration 1000.0 nM
[4] = biological target: Calcium/calmodulin-dependent protein kinase type II subunit alpha (Homo sapiens) (UniProt Q9UQM7); details: Compound concentration 1000.0 nM
[5] = biological target: Casein kinase II subunit alpha (Homo sapiens) (UniProt P68400); details: Compound concentration 1000.0 nM
[6] = biological target: Dual specificity tyrosine-phosphorylation-regulated kinase 2 (Homo sapiens) (UniProt Q92630); details: Compound concentration 1000.0 nM
[7] = system: Epidermal growth factor receptor (Homo sapiens), P00533 [L861Q]; details: Compound concentration 1000.0 nM
[8] = biological target: Ephrin type-A receptor 8 (Homo sapiens) (UniProt P29322); details: Compound concentration 1000.0 nM
[9] = biological target: Homeodomain-interacting protein kinase 2 (Homo sapiens) (UniProt Q9H2X6); details: Compound concentration 1000.0 nM
[10] = biological target: Serine/threonine-protein kinase ICK (Homo sapiens) (UniProt Q9UPZ9); details: Compound concentration 1000.0 nM
[11] = biological target: Tyrosine-protein kinase JAK3 (Homo sapiens) (UniProt P52333); details: Compound concentration 1000.0 nM
[12] = biological target: Serine/threonine-protein kinase LATS1 (Homo sapiens) (UniProt O95835); details: Compound concentration 1000.0 nM
[13] = biological target: Serine/threonine-protein kinase LATS2 (Homo sapiens) (UniProt Q9NRM7); details: Compound concentration 1000.0 nM
[14] = biological target: Serine/threonine-protein kinase 10 (Homo sapiens) (UniProt O94804); details: Compound concentration 1000.0 nM
[15] = biological target: Leucine-rich repeat serine/threonine-protein kinase 2 (Homo sapiens) (UniProt Q5S007); details: Compound concentration 1000.0 nM
Sequence of Leucine-rich repeat serine/threonine-protein kinase 2 (Homo sapiens) (Q5S007 whole entry): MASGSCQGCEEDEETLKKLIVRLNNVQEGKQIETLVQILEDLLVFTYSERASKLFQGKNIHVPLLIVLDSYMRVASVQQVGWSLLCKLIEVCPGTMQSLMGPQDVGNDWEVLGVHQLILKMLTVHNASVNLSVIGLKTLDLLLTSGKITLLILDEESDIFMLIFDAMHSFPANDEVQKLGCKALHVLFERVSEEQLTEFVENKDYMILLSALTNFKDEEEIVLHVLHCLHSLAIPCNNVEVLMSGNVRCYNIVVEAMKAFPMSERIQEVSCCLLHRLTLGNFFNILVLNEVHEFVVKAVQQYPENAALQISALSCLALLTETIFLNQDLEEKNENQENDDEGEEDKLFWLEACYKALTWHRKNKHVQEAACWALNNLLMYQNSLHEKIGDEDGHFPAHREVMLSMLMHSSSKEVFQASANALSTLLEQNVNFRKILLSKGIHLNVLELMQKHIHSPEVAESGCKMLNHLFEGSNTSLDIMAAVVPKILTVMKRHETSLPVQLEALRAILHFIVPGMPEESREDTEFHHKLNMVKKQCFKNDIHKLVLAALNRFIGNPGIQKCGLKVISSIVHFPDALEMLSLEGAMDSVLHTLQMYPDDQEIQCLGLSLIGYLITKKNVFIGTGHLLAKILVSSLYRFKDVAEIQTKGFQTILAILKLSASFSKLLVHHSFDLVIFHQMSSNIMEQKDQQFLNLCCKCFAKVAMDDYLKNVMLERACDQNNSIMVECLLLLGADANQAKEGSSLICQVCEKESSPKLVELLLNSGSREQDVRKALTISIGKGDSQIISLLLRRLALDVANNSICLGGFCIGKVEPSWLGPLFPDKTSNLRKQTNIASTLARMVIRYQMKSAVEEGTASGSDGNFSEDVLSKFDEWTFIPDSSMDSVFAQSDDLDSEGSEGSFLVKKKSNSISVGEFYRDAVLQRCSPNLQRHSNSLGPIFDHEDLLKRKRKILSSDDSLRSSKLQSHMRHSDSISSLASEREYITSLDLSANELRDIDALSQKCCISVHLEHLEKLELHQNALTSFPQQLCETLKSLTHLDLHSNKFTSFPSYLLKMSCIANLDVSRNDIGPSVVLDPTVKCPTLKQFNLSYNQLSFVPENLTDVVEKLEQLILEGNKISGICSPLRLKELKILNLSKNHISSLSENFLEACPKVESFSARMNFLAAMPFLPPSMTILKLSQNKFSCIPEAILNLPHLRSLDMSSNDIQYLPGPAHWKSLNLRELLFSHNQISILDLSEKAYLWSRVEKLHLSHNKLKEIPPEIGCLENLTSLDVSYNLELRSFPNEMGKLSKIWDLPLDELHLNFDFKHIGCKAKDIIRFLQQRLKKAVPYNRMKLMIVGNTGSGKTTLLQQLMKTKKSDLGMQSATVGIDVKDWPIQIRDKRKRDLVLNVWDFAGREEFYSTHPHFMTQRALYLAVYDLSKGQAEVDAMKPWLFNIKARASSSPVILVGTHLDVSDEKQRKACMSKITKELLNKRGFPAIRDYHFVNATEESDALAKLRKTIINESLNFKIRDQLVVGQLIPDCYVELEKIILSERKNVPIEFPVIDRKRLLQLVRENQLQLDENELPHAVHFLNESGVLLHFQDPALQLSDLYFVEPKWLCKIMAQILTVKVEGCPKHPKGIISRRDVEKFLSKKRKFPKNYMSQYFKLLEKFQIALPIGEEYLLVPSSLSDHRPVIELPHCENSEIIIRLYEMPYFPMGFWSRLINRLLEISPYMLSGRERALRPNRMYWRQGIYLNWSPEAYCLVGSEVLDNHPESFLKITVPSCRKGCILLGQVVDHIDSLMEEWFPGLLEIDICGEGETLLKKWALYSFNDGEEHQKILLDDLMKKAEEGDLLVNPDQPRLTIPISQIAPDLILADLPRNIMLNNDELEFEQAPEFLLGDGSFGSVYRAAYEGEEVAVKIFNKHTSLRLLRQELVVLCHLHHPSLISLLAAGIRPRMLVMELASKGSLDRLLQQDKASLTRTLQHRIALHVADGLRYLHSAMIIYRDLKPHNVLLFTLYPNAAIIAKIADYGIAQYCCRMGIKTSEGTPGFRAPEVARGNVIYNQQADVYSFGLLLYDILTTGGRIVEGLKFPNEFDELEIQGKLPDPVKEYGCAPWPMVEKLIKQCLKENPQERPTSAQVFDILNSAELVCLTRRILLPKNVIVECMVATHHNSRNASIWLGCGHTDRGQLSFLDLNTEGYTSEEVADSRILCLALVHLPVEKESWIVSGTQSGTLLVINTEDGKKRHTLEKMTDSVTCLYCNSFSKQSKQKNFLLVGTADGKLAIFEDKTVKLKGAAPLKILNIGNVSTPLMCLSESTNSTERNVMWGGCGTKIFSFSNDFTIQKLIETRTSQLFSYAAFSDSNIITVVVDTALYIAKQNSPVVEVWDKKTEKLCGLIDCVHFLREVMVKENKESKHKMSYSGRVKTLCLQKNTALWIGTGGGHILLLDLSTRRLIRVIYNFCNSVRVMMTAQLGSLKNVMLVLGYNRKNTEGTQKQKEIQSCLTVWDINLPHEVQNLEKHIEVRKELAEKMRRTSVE

[16] = biological target: Mitogen-activated protein kinase kinase kinase kinase 3 (Homo sapiens) (UniProt Q8IVH8); details: Compound concentration 1000.0 nM
Sequence of Mitogen-activated protein kinase kinase kinase kinase 3 (Homo sapiens) (Q8IVH8 whole entry): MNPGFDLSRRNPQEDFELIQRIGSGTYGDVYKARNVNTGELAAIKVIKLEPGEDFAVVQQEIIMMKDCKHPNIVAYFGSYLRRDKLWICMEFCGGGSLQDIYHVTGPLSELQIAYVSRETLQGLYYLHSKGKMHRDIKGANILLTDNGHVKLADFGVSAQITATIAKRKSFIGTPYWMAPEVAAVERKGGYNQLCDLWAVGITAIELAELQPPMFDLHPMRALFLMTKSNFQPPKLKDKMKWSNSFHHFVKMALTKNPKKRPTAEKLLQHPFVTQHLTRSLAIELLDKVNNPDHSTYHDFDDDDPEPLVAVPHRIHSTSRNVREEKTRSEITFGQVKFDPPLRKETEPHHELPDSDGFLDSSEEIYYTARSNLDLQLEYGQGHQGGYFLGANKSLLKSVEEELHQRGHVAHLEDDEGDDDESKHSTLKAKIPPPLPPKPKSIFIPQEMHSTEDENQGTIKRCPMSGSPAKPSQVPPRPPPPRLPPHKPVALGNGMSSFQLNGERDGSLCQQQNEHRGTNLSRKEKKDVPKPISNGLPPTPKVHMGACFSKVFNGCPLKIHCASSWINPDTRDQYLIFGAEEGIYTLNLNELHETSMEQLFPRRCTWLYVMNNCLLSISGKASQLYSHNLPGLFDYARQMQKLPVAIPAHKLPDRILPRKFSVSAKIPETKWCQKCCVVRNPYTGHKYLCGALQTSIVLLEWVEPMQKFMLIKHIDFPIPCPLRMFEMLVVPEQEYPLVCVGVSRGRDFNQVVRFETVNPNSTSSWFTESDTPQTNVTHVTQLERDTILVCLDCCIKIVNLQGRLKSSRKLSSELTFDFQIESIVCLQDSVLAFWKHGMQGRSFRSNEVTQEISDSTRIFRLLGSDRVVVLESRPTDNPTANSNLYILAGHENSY

[17] = biological target: MAP kinase-activated protein kinase 2 (Homo sapiens) (UniProt P49137); details: Compound concentration 1000.0 nM
[18] = biological target: Serine/threonine-protein kinase MARK1 (Homo sapiens) (UniProt Q9P0L2); details: Compound concentration 1000.0 nM
[19] = biological target: MAP/microtubule affinity-regulating kinase 4 (Homo sapiens) (UniProt Q96L34); details: Compound concentration 1000.0 nM
Sequence of MAP/microtubule affinity-regulating kinase 4 (Homo sapiens) (Q96L34 whole entry): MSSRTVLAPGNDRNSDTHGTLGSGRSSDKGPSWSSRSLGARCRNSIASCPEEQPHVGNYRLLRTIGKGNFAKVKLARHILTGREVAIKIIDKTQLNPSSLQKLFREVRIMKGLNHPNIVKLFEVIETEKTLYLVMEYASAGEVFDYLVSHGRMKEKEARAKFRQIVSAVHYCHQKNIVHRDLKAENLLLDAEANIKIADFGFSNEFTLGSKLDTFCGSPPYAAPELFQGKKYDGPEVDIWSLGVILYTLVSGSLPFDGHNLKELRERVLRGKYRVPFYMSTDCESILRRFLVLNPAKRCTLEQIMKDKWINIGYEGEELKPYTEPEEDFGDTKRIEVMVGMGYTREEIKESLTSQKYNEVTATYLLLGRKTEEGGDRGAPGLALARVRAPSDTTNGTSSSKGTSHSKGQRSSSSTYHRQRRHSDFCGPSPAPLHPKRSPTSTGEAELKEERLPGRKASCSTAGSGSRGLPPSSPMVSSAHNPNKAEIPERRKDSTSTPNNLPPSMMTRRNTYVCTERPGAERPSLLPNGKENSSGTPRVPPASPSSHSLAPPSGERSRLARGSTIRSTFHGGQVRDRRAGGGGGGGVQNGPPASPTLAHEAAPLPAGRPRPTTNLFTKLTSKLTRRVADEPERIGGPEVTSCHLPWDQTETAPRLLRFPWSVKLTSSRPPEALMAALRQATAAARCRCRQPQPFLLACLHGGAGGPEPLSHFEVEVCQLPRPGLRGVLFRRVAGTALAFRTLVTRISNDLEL

[20] = biological target: Dual specificity mitogen-activated protein kinase kinase 2 (Homo sapiens) (UniProt P36507); details: Compound concentration 1000.0 nM
[21] = biological target: Hepatocyte growth factor receptor (Homo sapiens) (UniProt P08581); details: Compound concentration 1000.0 nM
[22] = biological target: MAP kinase-interacting serine/threonine-protein kinase 2 (Homo sapiens) (UniProt Q9HBH9); details: Compound concentration 1000.0 nM
[23] = biological target: Serine/threonine-protein kinase MRCK beta (Homo sapiens) (UniProt Q9Y5S2); details: Compound concentration 1000.0 nM
[24] = biological target: Serine/threonine-protein kinase mTOR (Homo sapiens) (UniProt P42345); details: Compound concentration 1000.0 nM
[25] = biological target: Serine/threonine-protein kinase Nek6 (Homo sapiens) (UniProt Q9HC98); details: Compound concentration 1000.0 nM
[26] = biological target: Mitogen-activated protein kinase kinase kinase 14 (Homo sapiens) (UniProt Q99558); details: Compound concentration 1000.0 nM
[27] = biological target: cAMP-dependent protein kinase catalytic subunit beta (Homo sapiens) (UniProt P22694); details: Compound concentration 1000.0 nM
[28] = biological target: Serine/threonine-protein kinase PLK4 (Homo sapiens) (UniProt O00444); details: Compound concentration 1000.0 nM
[29] = biological target: Serine/threonine-protein kinase D2 (Homo sapiens) (UniProt Q9BZL6); details: Compound concentration 1000.0 nM
[30] = biological target: Protein-tyrosine kinase 2-beta (Homo sapiens) (UniProt Q14289); details: Compound concentration 1000.0 nM
[31] = biological target: Proto-oncogene tyrosine-protein kinase receptor Ret (Homo sapiens) (UniProt P07949); details: Compound concentration 1000.0 nM
[32] = biological target: Serine/threonine-protein kinase SBK1 (Homo sapiens) (UniProt Q52WX2); details: Compound concentration 1000.0 nM
[33] = biological target: Serine/threonine-protein kinase Sgk3 (Homo sapiens) (UniProt Q96BR1); details: Compound concentration 1000.0 nM
[34] = biological target: Serine/threonine-protein kinase 35 (Homo sapiens) (UniProt Q8TDR2); details: Compound concentration 1000.0 nM
[35] = biological target: Serine/threonine-protein kinase TBK1 (Homo sapiens) (UniProt Q9UHD2); details: Compound concentration 1000.0 nM
[36] = biological target: 5-hydroxytryptamine receptor 2C (Homo sapiens) (UniProt P28335); details: Compound concentration 10.0 uM
Sequence of 5-hydroxytryptamine receptor 2C (Homo sapiens) (P28335 whole entry): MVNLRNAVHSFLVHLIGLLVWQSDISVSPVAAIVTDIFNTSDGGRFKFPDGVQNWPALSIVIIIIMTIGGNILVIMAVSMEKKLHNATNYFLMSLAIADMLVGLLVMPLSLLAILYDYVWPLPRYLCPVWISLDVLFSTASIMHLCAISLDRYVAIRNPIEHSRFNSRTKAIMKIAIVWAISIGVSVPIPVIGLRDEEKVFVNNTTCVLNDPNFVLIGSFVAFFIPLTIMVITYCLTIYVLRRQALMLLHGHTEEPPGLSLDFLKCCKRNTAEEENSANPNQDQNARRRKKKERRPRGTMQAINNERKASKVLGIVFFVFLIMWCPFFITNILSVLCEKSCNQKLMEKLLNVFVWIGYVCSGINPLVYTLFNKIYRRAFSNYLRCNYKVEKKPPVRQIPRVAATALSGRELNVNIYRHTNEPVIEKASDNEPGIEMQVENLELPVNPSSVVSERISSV

[37] = biological target: T1, D(4) dopamine receptor (Homo sapiens) (UniProt P21917); details: Compound concentration 10.0 uM
T1 sequence (whole entry): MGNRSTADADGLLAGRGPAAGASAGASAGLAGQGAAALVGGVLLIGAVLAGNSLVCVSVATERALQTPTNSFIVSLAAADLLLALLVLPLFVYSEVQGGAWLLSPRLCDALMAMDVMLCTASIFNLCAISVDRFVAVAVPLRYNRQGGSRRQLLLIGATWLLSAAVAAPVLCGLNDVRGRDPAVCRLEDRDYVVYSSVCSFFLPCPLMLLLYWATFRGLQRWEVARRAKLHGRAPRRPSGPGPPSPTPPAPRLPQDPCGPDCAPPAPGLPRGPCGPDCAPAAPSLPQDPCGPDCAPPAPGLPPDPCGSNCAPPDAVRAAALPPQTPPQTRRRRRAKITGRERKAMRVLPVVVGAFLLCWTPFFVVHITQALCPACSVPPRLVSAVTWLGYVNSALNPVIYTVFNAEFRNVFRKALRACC

[38] = biological target: Histamine H3 receptor (Homo sapiens) (UniProt Q9Y5N1); details: Compound concentration 10.0 uM
[39] = biological target: Sigma non-opioid intracellular receptor 1 (Homo sapiens) (UniProt Q99720); details: Compound concentration 10.0 uM
Sequence of Sigma non-opioid intracellular receptor 1 (Homo sapiens) (Q99720 whole entry): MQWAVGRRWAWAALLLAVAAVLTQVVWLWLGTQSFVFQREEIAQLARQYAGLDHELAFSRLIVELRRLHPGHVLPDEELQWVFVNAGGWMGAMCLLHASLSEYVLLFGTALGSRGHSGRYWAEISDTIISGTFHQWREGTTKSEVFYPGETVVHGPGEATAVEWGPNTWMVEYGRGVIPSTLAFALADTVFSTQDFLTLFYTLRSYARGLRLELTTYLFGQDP

O=C(O)[C@@H]1[C@@H](Cn2nnc3ccccc3c2=O)CC[C@H]1C(=O)c1ccc(OCCC2CCOCC2)cc1 [BAY-694]
inactive: residual activity [1] 95% | residual activity [2] 100% | residual activity [3] 92% | residual activity [4] 100% | residual activity [5] 87% | residual activity [6] 90% | residual activity [7] 58% | residual activity [8] 99% | residual activity [9] 100% | residual activity [10] 97% | residual activity [11] 95% | residual activity [12] 90% | residual activity [13] 100% | residual activity [14] 84% | residual activity [15] 100% | residual activity [16] 100% | residual activity [17] 100% | residual activity [18] 100% | residual activity [19] 100% | residual activity [20] 100% | residual activity [21] 100% | residual activity [22] 99% | residual activity [23] 96% | residual activity [24] 96% | residual activity [25] 100% | residual activity [26] 100% | residual activity [27] 100% | residual activity [28] 83% | residual activity [29] 73% | residual activity [30] 100% | residual activity [31] 100% | residual activity [32] 100% | residual activity [33] 100% | residual activity [34] 100% | residual activity [35] 100% | inhibition [36] 21% | inhibition [37] 21.9% | inhibition [38] 4.06% | inhibition [39] 29.3%

O=C(O)[C@H]1[C@H](Cn2nnc3ccccc3c2=O)CC[C@@H]1C(=O)c1ccc(OCCC2CCOCC2)cc1 [BAY-7598]
inactive: residual activity [1] 80% | residual activity [2] 100% | residual activity [3] 100% | residual activity [4] 100% | residual activity [5] 100% | residual activity [6] 93% | residual activity [7] 53% | residual activity [8] 100% | residual activity [9] 100% | residual activity [10] 98% | residual activity [11] 100% | residual activity [12] 84% | residual activity [13] 100% | residual activity [14] 100% | residual activity [15] 90% | residual activity [16] 100% | residual activity [17] 89% | residual activity [18] 99% | residual activity [19] 96% | residual activity [20] 100% | residual activity [21] 94% | residual activity [22] 83% | residual activity [23] 100% | residual activity [24] 100% | residual activity [25] 100% | residual activity [26] 85% | residual activity [27] 95% | residual activity [28] 97% | residual activity [29] 73% | residual activity [30] 75% | residual activity [31] 82% | residual activity [32] 68% | residual activity [33] 100% | residual activity [34] 100% | residual activity [35] 94% | inhibition [36] 22.4% | inhibition [37] 12.5% | inhibition [38] -2.95% | inhibition [39] 6.09%
